Results from patent US20070167353A1, “PRODRUG COMPOSITION” (priority 2003, published 2007).
Like-named read-outs stand apart in the source and are kept apart here.

Legend:
vaccinia virus = assay: microbe, parasite or virus in culture; type: cell-based; settings: read-out: Vaccinia Plaque Reduction (IC50)
KB cell [1] = assay: KB cell cytotoxicity; settings: read-out: KB cell cytotoxicity (IC50)
[2] = Intestinal absorption after direct duodenal injection in anesthetized rats, plasma by LC/MS/MS; settings: for AUC0-4 hr of Prodrug: rat plasma, duodenal injection of the named prodrug
Procedure: The systemic plasma profiles of the prodrug, Ara A, and its main metabolite, Ara H are then monitored by removing plasma from a jugular vein cannula over a 4 hour period and assaying by LC/MS/MS assay.
Animals were dosed with Ara A at a level of 1.5 mg/rat via direct duodenal injection into anesthetized rats (n=2 per compound). Plasma samples were taken from the jugular vein at 0, 1, 2, and 4 hours from the jugular vein and were assayed for Ara A (▪), and Ara H (♦) by LC/MS/MS.
Animals were dosed with 5′-O-L isoleucyl Ara A prodrug at a level of 2.7 mg/rat via direct duodenal injection into anesthetized rats (n=3 per compound). Plasma samples were taken from the jugular vein at 0, 0.5, 1, 2, and 4 hours from the jugular vein and were assayed for prodrug (□), Ara A (▪), and Ara H (♦) by LC/MS/MS.
(§1) FIG. 6 is a graph showing mean plasma profiles of Ara A, Ara H, and 5′-O-D Isoleucyl Ara A after administration of 5′-O-D Isoleucyl Ara A into the duodenum of a rat. Animals were dosed with 5′-O-D Isoleucyl Ara A prodrug at a level of 2.7 mg/rat via direct duodenal injection into anesthetized rats (n=2). Plasma samples were taken from the jugular vein at 0, 0.5, 1, 2, and 4 hours from the jugular vein and were assayed for prodrug (□), Ara A (▪), and Ara H (♦) by LC/MS/MS.
as §1, with “7” for “6”, “5′-O-L Valyl” for “5′-O-D Isoleucyl”, “3” for “2.7”
as §1, with “FIG. 8” for “FIG. 6”, “5′-O-D Valyl” for “5′-O-D Isoleucyl”, “of 3.0” for “of 2.7”, “rats (n=3).” for “rats (n=2).”, “and ara” for “and Ara”
as §1, with “9” for “6”, “5′-O-Glycyl” for “5′-O-D Isoleucyl”, “3.0” for “2.7”

Cowpox = assay: organism not typed; type: cell-based; settings: read-out: Cowpox Plaque Reduction (IC50)
[3] = target: T1, human dipeptide transporter, hPept1 (Homo sapiens, UniProt P46059); settings: for HeLa/hPEPT1 uptake: pH 6
T1 sequence (P46059 1-708): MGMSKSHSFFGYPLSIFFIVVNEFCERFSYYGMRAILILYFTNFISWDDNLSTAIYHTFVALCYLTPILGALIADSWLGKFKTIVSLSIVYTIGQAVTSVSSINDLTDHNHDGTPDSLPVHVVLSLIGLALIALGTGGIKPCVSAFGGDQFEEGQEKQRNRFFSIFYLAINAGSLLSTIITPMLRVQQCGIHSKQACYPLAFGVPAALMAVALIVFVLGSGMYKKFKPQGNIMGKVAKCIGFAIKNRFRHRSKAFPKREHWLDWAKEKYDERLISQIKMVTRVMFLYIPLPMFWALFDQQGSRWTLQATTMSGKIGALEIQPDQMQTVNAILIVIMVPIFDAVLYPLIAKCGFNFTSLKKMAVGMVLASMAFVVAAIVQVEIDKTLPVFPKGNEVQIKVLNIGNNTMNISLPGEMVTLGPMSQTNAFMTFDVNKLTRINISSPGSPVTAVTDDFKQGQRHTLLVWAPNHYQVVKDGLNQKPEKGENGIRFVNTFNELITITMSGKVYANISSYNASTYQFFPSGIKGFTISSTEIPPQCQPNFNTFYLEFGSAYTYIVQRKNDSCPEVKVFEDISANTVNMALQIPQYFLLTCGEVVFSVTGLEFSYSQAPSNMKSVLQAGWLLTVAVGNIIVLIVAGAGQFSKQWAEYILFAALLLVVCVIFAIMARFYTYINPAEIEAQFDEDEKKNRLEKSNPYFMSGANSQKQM

[4] = buffer
[5] = Caco-2 cell homogenates, n = 3
KB cell [6] = system: KB cell
Caco-2 monolayers = assay: Caco-2 monolayer transport and stability; type: in vitro ADME; settings: for Permeability: apical to basolateral, 0.2 mM drug, apical pH 6.0, n = 3; for Stability (% remaining) Apical chamber (donor): percent prodrug remaining in donor solution at 120 minutes; for Stability (% remaining) Basolateral chamber (receiver): percent prodrug remaining in receiver solution at 120 minutes
Procedure: (§2) The transepithelial transport of Ara A, 5′-O-L-valyl Ara A, 5′-O-L-isoleucyl Ara A is tested in Caco-2 monolayers grown in transwell filters following standard procedures as described in detail in Landowski, C. P. et al., Pharm Res, 2005. 22(9): p. 1510-8. In these experiments, transport studies are performed 21 days post-seeding. The assay is initiated by adding drug transport solution (0.2 mM drug in MES buffer, pH 6.0 containing 5 mM D-glucose, 5 mM MES, 1 mM CaCl2, 1 mM MgCl2, 150 mM NaCl, 3 mM KCl, 1 mM NaH2PO4) to the apical chamber of the Caco-2 insert. Two hundred microliter aliquots are withdrawn from the basolateral chamber at predetermined intervals and replaced with fresh HEPES pH 7.4 buffer. The epithelial integrity of representative cell monolayers is assessed by monitoring transepithelial resistance. In these assays, the stability of the drug in both chambers of the insert is also monitored. […] Importantly, the prodrugs are stable, showing minimal metabolism to Ara A and Ara-H over a 2-hour time frame.

[7] = Solubility testing in water; type: physicochemical; settings: thermodynamic from solid; water added dropwise to 5 mg
Procedure: Water is added dropwise to 5 mg of each prodrug with intermittent stirring until the drug is fully dissolved. All of the Ara A prodrugs dissolved prior to the addition of 0.19 ml of water or at a concentration>26 mg/ml water. In contrast, unmodified Ara A is poorly soluble (<0.5 mg/ml) under these conditions.

adenosine deaminase = assay: Stability in the presence of adenosine deaminase; type: biochemical; settings: FIG. 3A
[8] = Caco-2 monolayer transport and stability; type: in vitro ADME; settings: human, Caco-2, pH 6
Procedure: as §2

KB cell cytotoxicity = settings: human, KB cells
[9] = Orthopoxvirus vaccinia, HFF, 72 h

Structure (SMILES) | IC50 (vaccinia virus; HFF cells, 3 days) [µM] | IC50 (KB cell [1]) [µM] | plasma Ara A levels after dosing (in words) ([2]; rat, duodenal injection) | hPepT1/Control [3] | HeLa/hPEPT1 uptake [3] | t1/2 Caco-2 [5] [min] | also measured
CC[C@@H](C)[C@@H](N)C(=O)OC[C@H]1O[C@@H](n2cnc3c(N)ncnc32)[C@@H](O)[C@@H]1O [5′-O-D-isoleucyl Ara A] | 3 | > 100 | increased levels of plasma Ara A |  |  |  | 
O=c1[nH]cnc2c1ncn2[C@@H]1O[C@H](CO)[C@@H](O)[C@@H]1O [Ara-H, 9-(beta-D-arabinofuranosyl) hypoxanthine] |  |  |  |  |  |  | IC50 (Cowpox): > 100 µM
Nc1ncnc2c1ncn2[C@@H]1O[C@H](COC(=O)[C@@H](N)CC(=O)O)[C@@H](O)[C@@H]1O [5′-O-L-aspartyl Ara A] | 7 | 60 |  | 1.27 | 5.0 ± 0.2 |  | 
Nc1ncnc2c1ncn2[C@@H]1O[C@H](COC(=O)[C@@H](N)Cc2ccccc2)[C@@H](O)[C@@H]1O [5′-O-L-phenylalanyl Ara A] | 20 |  |  |  |  | 3.5 ± 1.0 | t1/2 pH 7.4 [4]: 420.9 ± 40.1 min; IC50 (KB cell [6]): > 100 µM
CC[C@H](C)[C@H](N)C(=O)OC[C@H]1O[C@@H](n2cnc3c(N)ncnc32)[C@@H](O)[C@@H]1O [5′-O-L-isoleucyl Ara A] | 4.5 | > 100 |  | 26.9 | 202.0 ± 4.8 | 27.0 ± 1.3 | Permeability (Caco-2 monolayers): 5.66 ± 0.14 ×10^−6, cm/s; Stability (% remaining) Apical chamber (donor) (Caco-2 monolayers): 89.6%; Stability (% remaining) Basolateral chamber (receiver) (Caco-2 monolayers): 77.5%; AUC0-4 hr of Prodrug [2]: 658 ± 314 ng·h/mL; fold increase in circulating Ara A levels over dosing with Ara A ([2]; rat, duodenal injection): > 20 fold; percent of total drug measured in plasma found to be Ara-H ([2]; rat, in vivo): ~15%; percent of total drug measured in plasma present as Ara A ([2]; rat, in vivo): approximately 17%; percent of total drug measured in plasma present as prodrug ([2]; rat, in vivo): ~68%
CC(C)[C@@H](N)C(=O)OC[C@H]1O[C@@H](n2cnc3c(N)ncnc32)[C@@H](O)[C@@H]1O [5′-O-D-valyl Ara A] | 3.5 | > 100 | Increased levels of plasma Ara A |  |  |  | AUC0-4 hr of Prodrug [2]: 637 ± 74 ng·h/mL; prodrug absorption / prodrug concentrations in systemic plasma (in words) ([2]; rat, duodenal injection): extended and enhanced concentrations of the prodrug in systemic plasma
Nc1ncnc2c1ncn2[C@@H]1O[C@H](COC(=O)[C@@H]2CCCN2)[C@@H](O)[C@@H]1O [5′-O-L-prolyl Ara A] | 12 |  |  | 1.06 | 40.8 ± 1.0 | 1.3 ± 0.005 | t1/2 pH 7.4 [4]: 20.1 ± 1.0 min; IC50 (KB cell [6]): 45 µM
NCC(=O)OC[C@H]1O[C@@H](n2cnc3c(N)ncnc32)[C@@H](O)[C@@H]1O [5′-O-glycyl Ara A] | 15 | > 100 | relatively low plasma levels |  |  |  | prodrug absorption / prodrug concentrations in systemic plasma (in words) ([2]; rat, duodenal injection): limited intestinal absorption of the prodrug
Nc1ncnc2c1ncn2[C@@H]1O[C@H](CO)[C@@H](O)[C@@H]1O [Ara A, Adenine 9-beta-D-arabinofuranoside, reference compound] |  |  |  |  |  |  | IC50 (vaccinia virus; [9]): 5 µM; solubility [7]: < 500 µg/mL; deamination by adenosine deaminase (in words) (adenosine deaminase): rapidly hydrolyzed; IC50 (Cowpox): 6.5 µM; Papp A→B at 2 h, 0.2 mM [8]: 1.42 ± 0.05 ×10⁻⁶ cm/s; IC50 (KB cell cytotoxicity): > 100 µM
CC(C)[C@H](N)C(=O)OC[C@H]1O[C@@H](n2cnc3c(N)ncnc32)[C@@H](O)[C@@H]1O [5′-O-L-valyl Ara A] | 12 | 65 | Increased levels of plasma Ara A | 20.7 | 80.3 ± 1.1 | 11.1 ± 0.4 | Permeability (Caco-2 monolayers): 3.86 ± 0.03 ×10^−6, cm/s; Stability (% remaining) Apical chamber (donor) (Caco-2 monolayers): 82.1%; Stability (% remaining) Basolateral chamber (receiver) (Caco-2 monolayers): 62.0%; AUC0-4 hr of Prodrug [2]: 195 ± 25 ng·h/mL
Nc1ccn(C[C@@H](CO)OCP(=O)(O)O)c(=O)n1 [Cidofovir, reference compound] |  |  |  |  |  |  | IC50 (vaccinia virus; [9]): 26 µM; IC50 (Cowpox): 30 µM; IC50 (KB cell cytotoxicity): > 100 µM
